From patent publication US12696901B2, “Pesticidally active heterocyclic derivatives with sulfur containing substituents” (SYNGENTA CROP PROTECTION AG, priority 2020, dated 2026)

What was measured:
Type in all cases: in vivo
[1] = system: Diabrotica balteata (Corn Root Worm); experiment: Activity against Diabrotica balteata (corn root worm), corn seedlings on filter paper in cups; settings: 120 h, application rate 3 ppm, L2 larva, 5 days after treatment, read-out: effect in at least one of the two categories (mortality or growth inhibition)
Description: Example B12: Activity Against Diabrotica Balteata (Corn Root Worm)
Three corn seedlings were placed on wetted filter paper in plastic cups, and 3 ml of diluted test solutions were pipetted onto them. The cups were infested with 10 L2 larva and checked for mortality and growth regulation 5 days after treatment.

[2] = system: Plutella xylostella (Diamond Back Moth); experiment: Activity against Plutella xylostella (diamond back moth), treated artificial diet; settings: 192 h, application rate 200 ppm, eggs, 8 days after infestation, read-out: effect in at least one of the two categories (mortality or growth inhibition)
Description: Example B5: Activity Against Plutella xylostella (Diamond Back Moth)
24-well microtiter plates with artificial diet were treated with aqueous test solutions prepared from 10,000 ppm DMSO stock solutions by pipetting. After drying, Plutella eggs were pipetted through a plastic stencil onto a gel blotting paper and the plate was closed with it. The samples were assessed for mortality and growth inhibition in comparison to untreated samples 8 days after infestation.

[3] = system: Spodoptera littoralis (Egyptian Cotton Leaf Worm); experiment: Activity against Spodoptera littoralis (Egyptian cotton leaf worm), sprayed cotton leaf discs; settings: foliar, 72 h, application rate 200 ppm, L1 larvae, 3 days after infestation
Description: Example B7: Activity Against Spodoptera littoralis (Egyptian Cotton Leaf Worm)
Cotton leaf discs were placed onto agar in 24-well microtiter plates and sprayed with aqueous test solutions prepared from 10,000 ppm DMSO stock solutions. After drying the leaf discs were infested with five L1 larvae. The samples were assessed for mortality, anti-feeding effect, and growth inhibition in comparison to untreated samples 3 days after infestation. Control of Spodoptera littoralis by a test sample is given when at least one of the categories mortality, anti-feedant effect, and growth inhibition is higher than the untreated sample.

[4] = system: Carpocapsa (Cydia) Pomonella (Codling Moth); experiment: Activity against Carpocapsa (Cydia) pomonella (codling moth), sprayed diet cubes; settings: 336 h, application rate 12.5 ppm, L1 larvae, 14 days after infestation, read-out: effect in at least one of the two categories (mortality or growth inhibition)
Description: Example B11: Activity Against Carpocapsa (Cydia) Pomonella (Codling Moth)
Diet cubes coated with paraffin were sprayed with diluted test solutions in an application chamber. After drying off the treated cubes (10 replicates) were infested with 1 L1 larvae. Samples were incubated at 26-27° C. and checked 14 days after infestation for mortality and growth inhibition. The following compounds gave an effect of at least 80% in at least one of the two categories (mortality or growth inhibition) at an application rate of 12.5 ppm: P1, P2, P3, P4, P5, P6, P10, P11, P12, P14, P15, P16, P17, P19, P20, P21, P22, P24, P27, P29, P30, P33, P34, P35.

[5] = system: Myzus persicae (Green Peach Aphid); experiment: Activity against Myzus persicae (green peach aphid), feeding/contact activity; settings: 144 h, application rate 200 ppm, mixed ages, 6 days after infestation
Description: Example B6: Activity Against Myzus persicae (Green Peach Aphid) Feeding/Contact Activity
Sunflower leaf discs were placed onto agar in a 24-well microtiter plate and sprayed with aqueous test solutions prepared from 10,000 ppm DMSO stock solutions. After drying, the leaf discs were infested with an aphid population of mixed ages. The samples were assessed for mortality 6 days after infestation.

[6] = system: Diabrotica balteata (Corn Root Worm); experiment: Activity against Diabrotica balteata (corn root worm), sprayed maize sprouts on agar; settings: 96 h, application rate 200 ppm, L2 larvae, 4 days after infestation, read-out: effect in at least one of the two categories (mortality or growth inhibition)
Description: Example B2: Activity Against Diabrotica balteata (Corn Root Worm)
Maize sprouts placed onto an agar layer in 24-well microtiter plates were treated with aqueous test solutions prepared from 10,000 ppm DMSO stock solutions by spraying. After drying, the plates were infested with L2 larvae (6 to 10 per well). The samples were assessed for mortality and growth inhibition in comparison to untreated samples 4 days after infestation.

[7] = system: Euschistus heros (Neotropical Brown Stink Bug); experiment: Activity against Euschistus heros (neotropical brown stink bug), sprayed soybean leaves; settings: 120 h, application rate 200 ppm, N2 nymphs, 5 days after infestation, read-out: effect in at least one of the two categories (mortality or growth inhibition)
Description: Example B3: Activity Against Euschistus heros (Neotropical Brown Stink Bug)
Soybean leaves on agar in 24-well microtiter plates were sprayed with aqueous test solutions prepared from 10,000 ppm DMSO stock solutions. After drying the leaves were infested with N2 nymphs. The samples were assessed for mortality and growth inhibition in comparison to untreated samples 5 days after infestation.

[8] = system: Chilo suppressalis (Striped Rice Stemborer); experiment: Activity against Chilo suppressalis (striped rice stemborer), treated artificial diet; settings: 144 h, application rate 200 ppm, L2 larvae, 6 days after infestation
Description: Example B10: Activity Against Chilo suppressalis (Striped Rice Stemborer)
24-well microtiter plates with artificial diet were treated with aqueous test solutions prepared from 10,000 ppm DMSO stock solutions by pipetting. After drying, the plates were infested with L2 larvae (6-8 per well). The samples were assessed for mortality, anti-feeding effect, and growth inhibition in comparison to untreated samples 6 days after infestation. Control of Chilo suppressalis by a test sample is given when at least one of the categories mortality, anti-feedant effect, and growth inhibition is higher than the untreated sample.

CCS(=O)(=O)c1c(N2Cc3ncc(C(F)(F)F)cc3C2=O)nc2cc(C(F)(F)F)ccn12 [Compound P2, 6-[3-ethylsulfonyl-7-(trifluoromethyl)imidazo[1,2-a]pyridin-2-yl]-3-(trifluoromethyl)-7H-pyrrolo[3,4-b]pyridin-5-one]
≥ 80%: percent effect (mortality or growth inhibition) at 3 ppm [1] | percent effect (mortality or growth inhibition) at 200 ppm [2] | percent control (mortality, anti-feedant effect or growth inhibition) at 200 ppm [3] | percent effect (mortality or growth inhibition) at 12.5 ppm [4] | mortality at 200 ppm [5] | percent effect (mortality or growth inhibition) at 200 ppm [6]

CCS(=O)(=O)c1c(N2Cc3ncc(C(F)(F)F)cc3C2=O)nc2ccc(OC)cn12 [Compound P8, 6-(3-ethylsulfonyl-6-methoxy-imidazo [1,2-a]pyridin-2-yl)-3-(trifluoromethyl)-7H-pyrrolo[3,4-b] pyridin-5-one]
≥ 80%: percent effect (mortality or growth inhibition) at 200 ppm [7] | percent effect (mortality or growth inhibition) at 200 ppm [2] | percent control (mortality, anti-feedant effect or growth inhibition) at 200 ppm [3] | percent effect (mortality or growth inhibition) at 200 ppm [6]

CCS(=O)(=O)c1c(N2Cc3ncc(C(F)(F)F)cc3C2=O)nc2ccc(OC(C)C)cn12 [Compound P9, 6-(3-ethylsulfonyl-6-isopropoxy-imidazo [1,2-a]pyridin-2-yl)-3-(trifluoromethyl)-7H-pyrrolo[3,4-b] pyridin-5-one]
≥ 80%: percent control (mortality, anti-feedant effect or growth inhibition) at 200 ppm [3]

CCS(=O)(=O)c1c(N2Cc3ncc(C(F)(F)F)cc3C2=O)nc2ccc(OCC(F)(F)F)cn12 [Compound P11, 6-[3-ethylsulfonyl-6-(2,2,2-trifluoroethoxy)imidazo[1,2-a]pyridin-2-yl]-3-(trifluoromethyl)-7H-pyrrolo[3,4-b]pyridin-5-one]
≥ 80%: percent control (mortality, anti-feedant effect or growth inhibition) at 200 ppm [8] | percent effect (mortality or growth inhibition) at 3 ppm [1] | percent effect (mortality or growth inhibition) at 200 ppm [2] | percent control (mortality, anti-feedant effect or growth inhibition) at 200 ppm [3] | percent effect (mortality or growth inhibition) at 12.5 ppm [4] | mortality at 200 ppm [5] | percent effect (mortality or growth inhibition) at 200 ppm [6]

CCS(=O)(=O)c1c(N2Cc3ncc(C(F)(F)F)cc3C2=O)nc2cc(OCC(F)(F)F)ccn12 [Compound P12, 6-[3-ethylsulfonyl-7-(2,2,2-trifluoroethoxy)imidazo[1,2-a]pyridin-2-yl]-3-(trifluoromethyl)-7H-pyrrolo[3,4-b]pyridin-5-one]
≥ 80%: percent effect (mortality or growth inhibition) at 200 ppm [7] | percent control (mortality, anti-feedant effect or growth inhibition) at 200 ppm [8] | percent effect (mortality or growth inhibition) at 3 ppm [1] | percent effect (mortality or growth inhibition) at 200 ppm [2] | percent control (mortality, anti-feedant effect or growth inhibition) at 200 ppm [3] | percent effect (mortality or growth inhibition) at 12.5 ppm [4] | mortality at 200 ppm [5] | percent effect (mortality or growth inhibition) at 200 ppm [6]

CCS(=O)(=O)c1c(N2Cc3ncc(C(F)(F)F)cc3C2=O)nc2ccc(C(C)(F)F)cn12 [Compound P18, 6-[6-(1,1-difluoroethyl)-3-ethylsulfonyl-imidazo [1,2-a]pyridin-2-yl]-3-(trifluoromethyl)-7H-pyrrolo[3,4-b]pyridin-5-one]
≥ 80%: percent effect (mortality or growth inhibition) at 3 ppm [1]

CCS(=O)(=O)c1c(N2Cc3ncc(C(F)(F)F)cc3C2=O)nc2cc(Br)ccn12 [Compound P22, 6-(7-bromo-3-ethylsulfonyl-imidazo[1,2-a]pyridin-2-yl)-3-(trifluoromethyl)-7H-pyrrolo[3,4-b]pyridin-5-one]
≥ 80%: percent control (mortality, anti-feedant effect or growth inhibition) at 200 ppm [8] | percent effect (mortality or growth inhibition) at 3 ppm [1] | percent effect (mortality or growth inhibition) at 200 ppm [2] | percent control (mortality, anti-feedant effect or growth inhibition) at 200 ppm [3] | percent effect (mortality or growth inhibition) at 12.5 ppm [4] | mortality at 200 ppm [5] | percent effect (mortality or growth inhibition) at 200 ppm [6]

CCS(=O)(=O)c1c(N2Cc3ccc(OC(F)(F)F)cc3C2=O)nc2cc(OCC(F)(F)F)ccn12 [Compound P28, 2-[3-ethylsulfonyl-7-(2,2,2-trifluoroethoxy)imidazo[1,2-a]pyridin-2-yl]-6-(trifluoromethoxy) isoindolin-1-one]
≥ 80%: percent effect (mortality or growth inhibition) at 3 ppm [1]

CCS(=O)(=O)c1c(N2Cc3ccc(OC(F)(F)F)cc3C2=O)nc2ccc(Br)cn12 [Compound P29, 2-(6-bromo-3-ethylsulfonyl-imidazo [1,2-a]pyridin-2-yl)-6-(trifluoromethoxy) isoindolin-1-one]
≥ 80%: percent control (mortality, anti-feedant effect or growth inhibition) at 200 ppm [8] | percent effect (mortality or growth inhibition) at 3 ppm [1] | percent effect (mortality or growth inhibition) at 200 ppm [2] | percent control (mortality, anti-feedant effect or growth inhibition) at 200 ppm [3] | percent effect (mortality or growth inhibition) at 12.5 ppm [4] | mortality at 200 ppm [5] | percent effect (mortality or growth inhibition) at 200 ppm [6]

CCS(=O)(=O)c1c(N2Cc3ccc(S(=O)(=O)C(F)(F)F)cc3C2=O)nc2ccc(Br)cn12 [Compound P30, 2-(6-bromo-3-ethylsulfonyl-imidazo[1,2-a]pyridin-2-yl)-6-(trifluoromethyl-sulfonyl) isoindolin-1-one]
≥ 80%: percent control (mortality, anti-feedant effect or growth inhibition) at 200 ppm [8] | percent effect (mortality or growth inhibition) at 3 ppm [1] | percent effect (mortality or growth inhibition) at 200 ppm [2] | percent control (mortality, anti-feedant effect or growth inhibition) at 200 ppm [3] | percent effect (mortality or growth inhibition) at 12.5 ppm [4] | percent effect (mortality or growth inhibition) at 200 ppm [6]

CCS(=O)(=O)c1c(N2Cc3ncc(C(F)(F)F)cc3C2=O)nc2ccc(OCC3(C#N)CC3)cn12 [Compound P31, 1-[[3-ethylsulfonyl-2-[5-oxo-3-(trifluoromethyl)-7H-pyrrolo[3,4-b]pyridin-6-yl]imidazo [1,2-a]pyridin-6-yl]oxymethyl] cyclopropane-carbonitrile]
≥ 80%: percent control (mortality, anti-feedant effect or growth inhibition) at 200 ppm [8] | percent effect (mortality or growth inhibition) at 200 ppm [2] | percent control (mortality, anti-feedant effect or growth inhibition) at 200 ppm [3] | percent effect (mortality or growth inhibition) at 200 ppm [6]

CCS(=O)(=O)c1c(N2Cc3ccc(S(=O)(=O)C(F)(F)F)cc3C2=O)nc2ccc(C(F)(F)F)cn12 [Compound P32, 2-[3-ethylsulfonyl-6-(trifluoromethyl)imidazo[1,2-a]pyridin-2-yl]-6-(trifluoromethyl-sulfonyl) isoindolin-1-one]
≥ 80%: percent control (mortality, anti-feedant effect or growth inhibition) at 200 ppm [8] | percent effect (mortality or growth inhibition) at 3 ppm [1] | percent effect (mortality or growth inhibition) at 200 ppm [2] | percent control (mortality, anti-feedant effect or growth inhibition) at 200 ppm [3] | percent effect (mortality or growth inhibition) at 200 ppm [6]

CCS(=O)(=O)c1c(N2Cc3ccc(OC(F)F)cc3C2=O)nc2ccc(C(F)(F)F)cn12 [Compound P34, 6-(difluoromethoxy)-2-[3-ethylsulfonyl-6-(trifluoromethyl)imidazo[1,2-a]pyridin-2-yl]isoindolin-1-one]
≥ 80%: percent control (mortality, anti-feedant effect or growth inhibition) at 200 ppm [8] | percent effect (mortality or growth inhibition) at 3 ppm [1] | percent effect (mortality or growth inhibition) at 200 ppm [2] | percent control (mortality, anti-feedant effect or growth inhibition) at 200 ppm [3] | percent effect (mortality or growth inhibition) at 12.5 ppm [4] | mortality at 200 ppm [5] | percent effect (mortality or growth inhibition) at 200 ppm [6]
